Structures are written as SMILES. Read-outs that look alike come from different tables or passages of the source.

How the values of this series were obtained: Stability Study of the Hydrogen Sulfate Crystal Form I and Form II of the Compound of Formula I Under High Temperature and High Humidity Conditions
Setting the hydrogen sulfate crystal form I and form II of the compound of formula I at temperature of 60° C. and high humidity (25° C., relative humidity of 90%±5%) respectively for 10 days. Samples were taken on the 0, 5th and 10th days and determined by high performance liquid chromatography to investigate the changes in impurities.
Chromatographic conditions: Agilent 1100 for high performance liquid chromatography; chromatographic column ULTRON ES-OVM (5 μm, 4.6 mm×150 mm); mobile phase 0.01 mol/L potassium dihydrogen phosphate aqueous solution-acetonitrile (80:20); detection wavelength 220 nm; column temperature 30° C.; flow rate 1.0 mL/min; injection volume 10 μL.
Test method: accurately weighting 5 mg of the test probe, placing it in a 10 mL volumetric flask, adding 1 mL of methanol, dissolving with ultrasound, diluting to the mark with mobile phase and shaking to make a test solution with a concentration of 0.5 mg/mL. Precisely injecting 10 μL of the test solution into the liquid chromatography, recording the chromatogram and calculating the total content of impurities according to peak area normalization method.

As for `[2H]C([2H])([2H])OC(=O)[C@H](c1ccccc1Cl)N1CCc2sccc2C1` [Crystal Form I, Methyl-d3 (2S)-2-(2-chlorophenyl)-2-(6,7-dihydrothieno[3,2-c]pyridin-5(4H)-yl)acetate], the “Total Impurity Content (peak area %)” value came out at 0.386 peak area % (High Humidity (25° C., relative humidity of 90%±5%), 0 day, listed as I); 0.438 peak area % (High Humidity (25° C., relative humidity of 90%±5%), 5th day, listed as I); 0.576 peak area % (High Humidity (25° C., relative humidity of 90%±5%), 10th day, listed as I); 0.386 peak area % (High Temperature (60° C.), 0 day, listed as I); 0.597 peak area % (High Temperature (60° C.), 5th day, listed as I); 0.812 peak area % (High Temperature (60° C.), 10th day, listed as I). The “Total Impurity Growth Rate” value reads like this: (High Humidity (25° C., relative humidity of 90%±5%), 10 days, listed as I) 49.2%; (High Temperature (60° C.), 10 days, listed as I) 110%.
For `[2H]C([2H])([2H])OC(=O)[C@H](c1ccccc1Cl)N1CCc2sccc2C1` [Crystal Form II, Methyl-d3 (2S)-2-(2-chlorophenyl)-2-(6,7-dihydrothieno[3,2-c]pyridin-5(4H)-yl)acetate], the “Total Impurity Content (peak area %)” value by setting is: (High Humidity (25° C., relative humidity of 90%±5%), 0 day, listed as II) 0.372 peak area %; (High Humidity (25° C., relative humidity of 90%±5%), 5th day, listed as II) 0.409 peak area %; (High Humidity (25° C., relative humidity of 90%±5%), 10th day, listed as II) 0.533 peak area %; (High Temperature (60° C.), 0 day, listed as II) 0.372 peak area %; (High Temperature (60° C.), 5th day, listed as II) 0.526 peak area %; (High Temperature (60° C.), 10th day, listed as II) 0.737 peak area %. Moreover, the “Total Impurity Growth Rate” value was found to be 43.3% (High Humidity (25° C., relative humidity of 90%±5%), 10 days, listed as II) and 98.1% (High Temperature (60° C.), 10 days, listed as II). Also, under “high temperature and high humidity conditions, 10 days”, the “stability compared with the hydrogen sulfate form I” value is recorded as “better stability”.
